Test results from paper PMC10291553, “Exploring Structure–Activity Relationships in Photodynamic Therapy Anticancer Agents Based on Ir(III)-COUPY Conjugates” (Journal of Medicinal Chemistry, 2023).
Read-outs that look alike come from different tables or passages of the source.

Legend:
SK-MEL-28 = test: Photo- and cytotoxic activity determination (MTT), SK-MEL-28 cells; type: cell-based, human; details: normoxia; for SK-MEL-28 PI (phototherapeutic index), IC50 dark/IC50 irradiated: dark tested up to 100 μM
Description: Having shown that the Ir(III)-COUPY conjugates can sensitize both type I and II ROS through spectroscopic techniques and readily internalize into living cells, their photocytotoxicity was screened in various cancer cell lines. This screening included two representative melanoma cell lines (human A375 and […] human SK-MEL-28) and cancer cells with resistance to the clinical drug cisplatin. For the latter, both sensitive and cisplatin-resistant ovarian cancer cells (A2780 and A2780cis) as well as HeLa cells, which also show a degree of chemoresistance to the platinum anticancer drug in vitro,[54] were used. For the determination of dark and light cytotoxicity, dose–response curves were assayed from both conditions to provide the correspondent IC50 values, which correspond to the concentration needed for inhibition of cell growth by 50%. Phototherapeutic index (PI) was calculated as the ratio of dark to light IC50 value for each compound.
A375, HeLa, and SK-MEL-28 cells were cultured in Dulbecco’s modified Eagle medium (DMEM) supplemented with 10% FBS, L-glutamine, and 1% penicillin–streptomycin. A2780 and A2780cis cells were grown in RPMI-1640 cell medium supplemented with 10% fetal bovine serum (FBS) and 2 mM L-glutamine. Acquired resistance to cisplatin in the A2780cis cell line was maintained by adding cisplatin 1 μM to culture medium every second passage. Cells were cultured in a humidified incubator at 310 K with 5% CO2 atmosphere and subcultured two or three times a week with appropriate densities and were confirmed to be mycoplasma-free using a standard Hoechst DNA staining method.
A2780, A2780cis, HeLa, A375, and SK-MEL-28 cells were maintained at logarithmic growth-phase and cultured in 96-well plates at a density of 5000 cells/well in complete medium for 24 h at 310 K, 5% CO2 in a humidified incubator. For hypoxia experiments, a hypoxia condition was set up by Tissue Culture Service at University of Murcia using nitrogen (N2) to displace O2 down to a minimum of 2% in a Forma Steri-Cycle i160 incubator (Thermo Fisher Scientific). Serial dilutions of the compounds were added at the final concentrations in the range of 0–100 μM in a final volume of 100 μL per well. A light-based treatment schedule was performed as follows: 1 h incubation with the compounds in the dark, followed by 1 h incubation under irradiation conditions by placing the Photoreactor EXPO-LED from Luzchem (Canada) fitted with green lamps (final light intensity applied of 1.5 mW/cm^2 at λmax = 520 nm) inside the CO2 incubator. All the cell culture plates subjected to light irradiation included untreated controls to verify that cell viability was not affected by light. Then, treatment-containing media was removed, and fresh media was added for a 48 h cell recovery period; the temperature throughout the experiment remained at 310 K. Dark control samples were placed in the same dark conditions and then kept incubated for 1 h in the dark in the humidified CO2 incubator. Medium was then aspirated by suction, cells were loaded with 50 μL of MTT solution (1 mg/mL) for additional 4 h and then removed, and 50 μL of DMSO was added to solubilize the purple formazan crystals formed in active cells. The absorbance was measured at 570 nm using a microplate reader (FLUOstar Omega), and the IC50 values were calculated based on the inhibitory rate curves using the following equation [drawing 4] 4 where I represents the percentage inhibition of viability observed, Imax is the maximal inhibitory effect, IC50 is the concentration that inhibits 50% of maximal growth, C is the concentration of the treatment, and n is the slope of the semi-logarithmic dose–response sigmoidal curves. The non-linear fitting was performed using SigmaPlot 14.0 software. All experiments were performed in three independent studies with n = 3 replicates per concentration level. For a detailed phototoxicity procedure, ref ([43]) includes technical explanations.

[1] = Singlet oxygen generation, time-resolved NIR phosphorescence at 1275 nm; type: physicochemical; details: for singlet oxygen quantum yield at 355 nm, ACN / singlet oxygen quantum yield at 355 nm, DCM / singlet oxygen quantum yield at 355 nm, PBS: excitation 355 nm; for singlet oxygen quantum yields in DCM: excitation at 355 and 532 nm
Description: Singlet oxygen generation was studied by time-resolved near-infrared phosphorescence by means of a customized setup. Briefly, a pulsed Nd:YAG laser (FTSS355-Q, Crystal Laser, Berlin, Germany) working at a 1 or 10 kHz repetition rate at 355 nm (0.5 μJ per pulse) or 532 nm (1.2 μJ per pulse) was used to excite the sample. A 1064 nm rugate notch filter (Edmund Optics) and an uncoated SKG-5 filter (CVI Laser Corporation) were placed in the laser path to remove any NIR emission. The light emitted by the sample was filtered with a 1000 nm long-pass filter (Edmund Optics) and later by a narrow bandpass filter at 1275 nm (BK-1270-70-B, bk Interferenzoptik). A thermoelectric-cooled NIR-sensitive photomultiplier tube assembly (H9170-45, Hamamatsu Photonics, Hamamatsu, Japan) was used as a detector. […] The time dependence of the ^1O2 phosphorescence with the signal intensity S(t) is described by eq 2, in which τT and τΔ are the lifetimes of the photosensitizer triplet state and of ^1O2 respectively, and S0 is a preexponential parameter proportional to ΦΔ. [drawing 2] 2
The ΦΔ values of the different samples were obtained by comparing S0 values of optically matched samples and using an appropriate reference by means of eq 3. [drawing 3] 3

A2780cis MCTS = test: 3D multicellular tumor spheroid growth inhibition; type: cell-based; details: 10 μM, 4 h incubation; for spheroid shrinkage compared to irradiated controls: 1 h 520 nm; for tumor growth of A2780cis spheres after PDT treatment: 1 h 520 nm on day 3, followed 7 days
Procedure: Briefly, a single suspension of A2780cis cells at a density of 5 × 10^3 cells/well in complete RPMI medium was dispatched onto 96-well Corning microplates with ultralow attachment surface coating. The plates were covered and transferred to an incubator at 310 K with a 5% CO2 atmosphere. After 3 days post-seeding, uniform MCTSs were formed, which was confirmed using an inverted Zeiss AXIO observer 7 microscope. Cell media of MCTSs was changed by replacing 50% with fresh cell media and allowed to grow for 3 days. On day 3, MTCS was incubated with tested agents (10 μM) for 4 h and then irradiated with 520 nm light for 1 h. Treatments were then carefully removed, and fresh media was added. The integrity, radius, size, and volume of the MCTSs were monitored using a DMi1 inverted phase contrast microscope (Leica Microsystems) over 7 days. The radius of the tumorspheres was measured using Fiji software, and the volume was calculated using the following equation: V = 4/3πr^3.

[2] = Homo sapiens, SK-MEL-28, 1 h incubation + 1 h green light 520 nm, 1.5 mW cm^–2, 48 h drug-free medium, read-out: SK-MEL-28 light IC50
[3] = Homo sapiens, SK-MEL-28, kept in the dark, 2 h treatment, 48 h drug-free medium, read-out: SK-MEL-28 dark IC50
[4] = excitation 532 nm, room temperature
[5] = 1 h incubation + 1 h green light 520 nm, 1.5 mW cm^–2, 48 h drug-free medium, read-out: SK-MEL-28 light IC50
[6] = kept in the dark, 2 h treatment, 48 h drug-free medium, read-out: SK-MEL-28 dark IC50

SMILES	IC50 (SK-MEL-28; [2])	IC50 (SK-MEL-28; [3])	SK-MEL-28 PI (phototherapeutic index), IC50 dark/IC50 irradiated (SK-MEL-28; 520 nm)	IC50 (SK-MEL-28; [5])	IC50 (SK-MEL-28; [6])	tumor growth of A2780cis spheres after PDT treatment (A2780cis MCTS)	further results
CCN(CC)c1ccc2c(c1)O/C(=C(/C#N)c1cc[n+](C)cc1)C=C2C [1a]	1.2 ± 0.1 µM	> 100 µM	> 86				
CC1=C/C(=C(\C#N)c2cc[n+](C)cc2)Oc2ccccc21 [1b]	> 100 µM	> 100 µM					IC50 (SK-MEL-28; Homo sapiens, SK-MEL-28, 520 nm, read-out: SK-MEL-28 Light 520 nm IC50 (microM) Normoxia): > 100 µM; IC50 (SK-MEL-28; Homo sapiens, SK-MEL-28, dark, read-out: SK-MEL-28 Dark IC50 (microM) Normoxia): > 100 µM; singlet oxygen quantum yield at 355 nm, ACN ([1]; room temperature): 0.01; singlet oxygen quantum yield at 532 nm, ACN [1, 4]: < 0.01; singlet oxygen quantum yield at 355 nm, DCM ([1]; DCM, room temperature): 0.01; singlet oxygen quantum yield at 355 nm, PBS ([1]; room temperature): 0; singlet oxygen quantum yield at 532 nm, PBS [1, 4]: < 0.01
CC1=C/C(=C(\C#N)c2cc[n+](C)cc2)Oc2c1cc1c3c2CCCN3CCC1 [1c]	0.2 ± 0.01 µM	12 ± 1 µM	60				singlet oxygen quantum yield at 355 nm, ACN ([1]; room temperature): 0; singlet oxygen quantum yield at 532 nm, ACN [1, 4]: 0.01; singlet oxygen quantum yield at 355 nm, DCM ([1]; DCM, room temperature): 0.03; singlet oxygen quantum yield at 532 nm, DCM ([1]; DCM, excitation 532 nm, room temperature): 0.03; singlet oxygen quantum yield at 355 nm, PBS ([1]; room temperature): 0; singlet oxygen quantum yield at 532 nm, PBS [1, 4]: < 0.01
CCCCn1c2[n+](c3cc(C(=O)OC)ccc31)[Ir-3]13([c]4ccccc4-c4[nH]c5ccccc5[n+]41)([c]1ccccc1-c1[nH]c4ccccc4[n+]13)[n+]1c-2ccc2ccccc21 [2a]			> 36	2.8 ± 0.3 µM	> 100 µM		
CCCCn1c2[n+](c3cc(C(=O)NCCCNC(=O)C[n+]4ccc(/C(C#N)=C5/C=C(C)c6ccc(N(CC)CC)cc6O5)cc4)ccc31)[Ir-3]13([c]4ccccc4-c4[nH]c5ccccc5[n+]41)([c]1ccccc1-c1[nH]c4ccccc4[n+]13)[n+]1c-2ccc2ccccc21 [3a]			> 67	1.5 ± 0.1 µM	> 100 µM	effectively blocked tumoral growth	spheroid shrinkage compared to irradiated controls (A2780cis MCTS): statistically significant shrank
CCCCn1c2[n+](c3cc(C(=O)NCCCNC(=O)C[n+]4ccc(/C(C#N)=C5/C=C(C)c6ccccc6O5)cc4)ccc31)[Ir-3]13([c]4ccccc4-c4[nH]c5ccccc5[n+]41)([c]1ccccc1-c1[nH]c4ccccc4[n+]13)[n+]1c-2ccc2ccccc21 [3b]			> 48	2.1 ± 0.2 µM	> 100 µM	did not show significant tumor inhibition effects	singlet oxygen quantum yields in DCM ([1]; DCM): ca. 0.20
CCCCn1c2[n+](c3cc(C(=O)NCCCNC(=O)C[n+]4ccc(/C(C#N)=C5/C=C(C)c6cc7c8c(c6O5)CCCN8CCC7)cc4)ccc31)[Ir-3]13([c]4ccccc4-c4[nH]c5ccccc5[n+]41)([c]1ccccc1-c1[nH]c4ccccc4[n+]13)[n+]1c-2ccc2ccccc21 [3c]				> 100 µM	> 100 µM	did not show significant tumor inhibition effects	IC50 (SK-MEL-28; 520 nm, read-out: SK-MEL-28 Light 520 nm IC50 (microM) Normoxia): > 100 µM; IC50 (SK-MEL-28; dark, read-out: SK-MEL-28 Dark IC50 (microM) Normoxia): > 100 µM; singlet oxygen quantum yields in DCM ([1]; DCM): ca. 0.20
CCCCn1c2[n+](c3cc(C(=O)NCCCCCC(=O)NCCCNC(=O)C[n+]4ccc(/C(C#N)=C5/C=C(C)c6ccc(N(CC)CC)cc6O5)cc4)ccc31)[Ir-3]13([c]4ccccc4-c4[nH]c5ccccc5[n+]41)([c]1ccccc1-c1[nH]c4ccccc4[n+]13)[n+]1c-2ccc2ccccc21 [3d]			> 40	2.5 ± 0.2 µM	> 100 µM	effectively blocked tumoral growth	
CCCCn1c2[n+](c3cc(C(=O)NC[C@H]4CC[C@H](C(=O)NCCCNC(=O)C[n+]5ccc(/C(C#N)=C6/C=C(C)c7ccc(N(CC)CC)cc7O6)cc5)CC4)ccc31)[Ir-3]13([c]4ccccc4-c4[nH]c5ccccc5[n+]41)([c]1ccccc1-c1[nH]c4ccccc4[n+]13)[n+]1c-2ccc2ccccc21 [3e]			> 13	7.6 ± 0.9 µM	> 100 µM	effectively blocked tumoral growth	spheroid shrinkage compared to irradiated controls (A2780cis MCTS): statistically significant shrank
